Assay results reported in patent publication US20240025856A1, “1,2,3,4-TETRAHYDROQUINOLINE DERIVATIVES AS INHIBITORS OF THE YAP/TAZ-TEAD ACTIVATION FOR TREATING CANCER” (KATHOLIEKE UNIVERSITEIT LEUVEN, priority 2020, published 2024).

Tested on: YAP/TAZ-TEAD transcription
Test: Reporter gene assay for measuring the inhibition of YAP/TAZ-TEAD transcription (TEAD-responsive element luciferase reporter in Hek293T cells)
Assay type: cell-based
Conditions: Hek293T cells transiently transfected with TEAD-responsive element luciferase reporter, 24 hours incubation
Procedure: Hek293T cells are cultured in DMEM supplemented with 10% fetal bovine serum, Sodium pyruvate, Sodium bicarbonate, L-glutamine. The cells are harvested and transiently transfected with TEAD-responsive element luciferase reporter. Transfected cells are plated in 384-wells plate containing pre-diluted compounds. After 24 hours incubation at 37° C./5% CO2, assay plates were cooled down to RT and levelled to an equal volume per well, prior to the addition of 25 uL luciferase substrate SteadyLite (Perkin Elmer)/well. The plate was shaken for 10 min at 600 rpm, centrifuged for 1 min at 500 rpm and measured with an Envision reader (PerkinElmer). The amount of relative light units produced by the TEAD reporter is used to calculated percent of inhibition. The percent of reporter inhibition was calculated in the presence of a positive control inhibitor (100% inhibition) versus a condition with the presence of the vehicle basal activity of the reporter (0% inhibition). The ability of a test compound to inhibit this activity was determined as: Percentage inhibition=[[…]((RLU determined in the presence of vehicle−RLU determined for sample with test compound present) divided by (RLU determined in the presence of vehicle−RLU determined for sample with positive control inhibitor))]*100
The activities of example compounds tested are depicted in the table below. The activity ranges A, B and C refer to IC50 values in the reporter gene assay as follows: “A”: IC50<1 μM; “B”: 1 μM≤IC50≤20 μM and “C”: IC50>20 μM; NT=not tested.

Row | SMILES | IC50 (Homo sapiens, HEK-293T, 24 h) [nM] | IC50 [nM]
1 | C=CC(=O)NC1Cc2ccccc2N(c2ccc(C(F)(F)F)cc2)C1 (single isomer, unassigned) [001-En1] | < 1000 | –
2 | OCCNC1Cc2ccccc2N(c2ccc(C(F)(F)F)cc2)C1 (single isomer, unassigned) [043-En1, (R)- or (S)-2-((1-(4-(trifluoromethyl)phenyl)-1,2,3,4-tetrahydroquinolin-3-yl)amino)ethan-1-ol] | – | 1000 to 20000
3 | OCCNC1Cc2ccccc2N(c2ccc(C(F)(F)F)cc2)C1 (single isomer, unassigned) [043-En2, (R)- or (S)-2-((1-(4-(trifluoromethyl)phenyl)-1,2,3,4-tetrahydroquinolin-3-yl)amino)ethan-1-ol] | – | < 1000
4 | OCCCNC1Cc2ccccc2N(c2ccc(C(F)(F)F)cc2)C1 (single isomer, unassigned) [045-En1, (R)- or (S)-3-((1-(4-(trifluoromethyl)phenyl)-1,2,3,4-tetrahydroquinolin-3-yl)amino)propan-1-ol] | – | 1000 to 20000
5 | OCCCNC1Cc2ccccc2N(c2ccc(C(F)(F)F)cc2)C1 (single isomer, unassigned) [045-En2, (R)- or (S)-3-((1-(4-(trifluoromethyl)phenyl)-1,2,3,4-tetrahydroquinolin-3-yl)amino)propan-1-ol] | – | 1000 to 20000
6 | C=CC(=O)NCC1Cc2ccccc2N(c2ccc(C(F)(F)F)cc2)C1 (single isomer, unassigned) [084-En2, N-((1-(4-(trifluoromethyl)phenyl)-1,2,3,4-tetrahydroquinolin-3-yl)methyl)acrylamide] | < 1000 | –
7 | C=CC(=O)NCC1Cc2c(C(=O)NS(C)(=O)=O)cccc2N(c2ccc(C(F)(F)F)cc2)C1 (single isomer, unassigned) [157-En1, (R)- or (S)-3-(acrylamidomethyl)-N-(methylsulfonyl)-1-(4-(trifluoromethyl)phenyl)-1,2,3,4-tetrahydroquinoline-5-carboxamide] | – | > 20000
8 | FC(F)(F)c1ccc(N2CC(C3CC(Br)=NO3)Cc3ccccc32)cc1 (single isomer, unassigned) [Cpd. No. 194(Dia1)-En2, 3-bromo-5-(1-(4-(trifluoromethyl)phenyl)-1,2,3,4-tetrahydroquinolin-3-yl)-4,5-dihydroisoxazole] | – | > 20000
9 | FC(F)(F)c1ccc(N2CC(C3CC(Br)=NO3)Cc3ccccc32)cc1 (single isomer, unassigned) [Cpd. No. 194(Dia2)-En1, 3-bromo-5-(1-(4-(trifluoromethyl)phenyl)-1,2,3,4-tetrahydroquinolin-3-yl)-4,5-dihydroisoxazole] | – | 1000 to 20000
10 | FC(F)(F)c1ccc(N2CC(C3CC(Br)=NO3)Cc3ccccc32)cc1 (single isomer, unassigned) [Cpd. No. 194(Dia2)-En2, 3-bromo-5-(1-(4-(trifluoromethyl)phenyl)-1,2,3,4-tetrahydroquinolin-3-yl)-4,5-dihydroisoxazole] | – | < 1000
11 | NCC1Cc2ccccc2N(c2ccc(C(F)(F)F)cc2)C1 (stereo not drawn) [170 (Int-10), (1-(4-(trifluoromethyl)phenyl)-1,2,3,4-tetrahydroquinolin-3-yl)methanamine] | 1000 to 20000 | –
12 | NC1Cc2ccccc2N(c2ccc(C(F)(F)F)cc2)C1 (stereo not drawn) [171 (Int-3), 1-(4-(trifluoromethyl)phenyl)-1,2,3,4-tetrahydroquinolin-3-amine] | 1000 to 20000 | –
13 | C=CC(=O)NC1Cc2nc(OC)ccc2N(c2ccc(C(F)(F)F)cc2)C1 (stereo not drawn) [Cpd. No. 141, N-(6-methoxy-1-(4-(trifluoromethyl)phenyl)-1,2,3,4-tetrahydro-1,5-naphthyridin-3-yl)acrylamide] | < 1000 | –
14 | C=CC(=O)NCC1Cc2c(C(=O)O)cccc2N(c2ccc(C(F)(F)F)cc2)C1 (stereo not drawn) [Cpd. No. 156, 3-(acrylamidomethyl)-1-(4-(trifluoromethyl)phenyl)-1,2,3,4-tetrahydroquinoline-5-carboxylic acid] | > 20000 | –
15 | C=CC(=O)NCC1Cc2c(C(=O)NS(=O)(=O)C3CC3)cccc2N(c2ccc(C(F)(F)F)cc2)C1 (stereo not drawn) [Cpd. No. 158, 3-(acrylamidomethyl)—N-(cyclopropylsulfonyl)-1-(4-(trifluoromethyl)phenyl)-1,2,3,4-tetrahydroquinoline-5-carboxamide] | > 20000 | –
16 | C=CC(=O)NCC1Cc2c(CC(=O)O)cccc2N(c2ccc(C(F)(F)F)cc2)C1 (stereo not drawn) [Cpd. No. 161, 2-(3-(acrylamidomethyl)-1-(4-(trifluoromethyl)phenyl)-1,2,3,4-tetrahydroquinolin-5-yl)acetic acid] | – | 1000 to 20000
17 | C=CC(=O)NCC1Cc2c(CC(=O)O)cccc2N(c2ccc(C(F)(F)F)cc2)C1 (stereo not drawn) [Cpd. No. 161-En1, 2-(3-(acrylamidomethyl)-1-(4-(trifluoromethyl)phenyl)-1,2,3,4-tetrahydroquinolin-5-yl)acetic acid] | – | > 20000
18 | C=CC(=O)NCC1Cc2c(CC(=O)O)cccc2N(c2ccc(C(F)(F)F)cc2)C1 (stereo not drawn) [Cpd. No. 161-En2, 2-(3-(acrylamidomethyl)-1-(4-(trifluoromethyl)phenyl)-1,2,3,4-tetrahydroquinolin-5-yl)acetic acid] | – | 1000 to 20000
19 | C=CC(=O)NCC1Cc2c(Cc3noc(=O)[nH]3)cccc2N(c2ccc(C(F)(F)F)cc2)C1 (stereo not drawn) [Cpd. No. 168, N-((5-((5-oxo-4,5-dihydro-1,2,4-oxadiazol-3-yl)methyl)-1-(4-(trifluoromethyl)phenyl)-1,2,3,4-tetrahydroquinolin-3-yl)methyl)acrylamide] | < 1000 | –
20 | C=CC(=O)NCC1Cc2c(Cc3noc(=O)[nH]3)cccc2N(c2ccc(C(F)(F)F)cc2)C1 (stereo not drawn) [Cpd. No. 168-En1, N-((5-((5-oxo-4,5-dihydro-1,2,4-oxadiazol-3-yl)methyl)-1-(4-(trifluoromethyl)phenyl)-1,2,3,4-tetrahydroquinolin-3-yl)methyl)acrylamide] | – | 1000 to 20000
21 | C=CC(=O)NCC1Cc2c(Cc3noc(=O)[nH]3)cccc2N(c2ccc(C(F)(F)F)cc2)C1 (stereo not drawn) [Cpd. No. 168-En2, N-((5-((5-oxo-4,5-dihydro-1,2,4-oxadiazol-3-yl)methyl)-1-(4-(trifluoromethyl)phenyl)-1,2,3,4-tetrahydroquinolin-3-yl)methyl)acrylamide] | – | < 1000
22 | C=CC(=O)NC1Cc2c(C(=O)NC#N)cccc2N(c2ccc(C(F)(F)F)cc2)C1 (stereo not drawn) [Cpd. No. 169, 3-acrylamido-N-cyano-1-(4-(trifluoromethyl)phenyl)-1,2,3,4-tetrahydroquinoline-5-carboxamide] | > 20000 | –
23 | C=CC(=O)NC1Cc2ccccc2N(C(=O)C2CCCCC2)C1 (stereo not drawn) [Cpd. No. 173, N-(1-(cyclohexanecarbonyl)-1,2,3,4-tetrahydroquinolin-3-yl)acrylamide] | > 20000 | –
24 | C=CC(=O)NC1Cc2ccccc2N(Cc2ccccc2)C1 (stereo not drawn) [Cpd. No. 174, N-(1-benzyl-1,2,3,4-tetrahydroquinolin-3-yl)acrylamide] | < 1000 | –
25 | C=CC(=O)NC1Cc2ccccc2N(CC2CCCCC2)C1 (stereo not drawn) [Cpd. No. 175, N-(1-(cyclohexylmethyl)-1,2,3,4-tetrahydroquinolin-3-yl)acrylamide] | < 1000 | –
26 | C=CC(=O)NCC1CCc2ccccc2N1c1ccc(C(F)(F)F)cc1 (stereo not drawn) [Cpd. No. 178, N-((1-(4-(trifluoromethyl)phenyl)-1,2,3,4-tetrahydroquinolin-2-yl)methyl)acrylamide] | < 1000 | –
27 | CC(=O)NC/C=C/C(=O)NCC1Cc2ccccc2N(c2ccc(C(F)(F)F)cc2)C1 (stereo not drawn) [Cpd. No. 193, (E)-4-acetamido-N-((1-(4-(trifluoromethyl)phenyl)-1,2,3,4-tetrahydroquinolin-3-yl)methyl)but-2-enamide] | < 1000 | –
